T1: 3-phosphoshikimate 1-carboxyvinyltransferase (Escherichia coli K-12, UniProt P0A6D3)
T1 sequence (P0A6D3 whole entry): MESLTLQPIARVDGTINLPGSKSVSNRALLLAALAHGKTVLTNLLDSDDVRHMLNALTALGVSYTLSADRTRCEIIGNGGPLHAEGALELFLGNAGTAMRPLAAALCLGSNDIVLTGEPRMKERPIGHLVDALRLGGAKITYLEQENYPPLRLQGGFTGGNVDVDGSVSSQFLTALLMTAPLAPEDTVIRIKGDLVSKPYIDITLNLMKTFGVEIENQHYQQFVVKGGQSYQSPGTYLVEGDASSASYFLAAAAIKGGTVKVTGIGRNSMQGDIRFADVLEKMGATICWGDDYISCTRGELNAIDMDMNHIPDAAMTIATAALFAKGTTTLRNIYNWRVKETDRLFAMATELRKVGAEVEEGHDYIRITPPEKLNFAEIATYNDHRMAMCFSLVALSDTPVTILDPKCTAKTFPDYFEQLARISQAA

T2: 3-phosphoshikimate 1-carboxyvinyltransferase (Escherichia coli K-12) (UniProt P0A6D3)
T2 sequence (whole entry): T1 sequence (P0A6D3 whole entry)

B1: 3-phosphoshikimate 1-carboxyvinyltransferase (Escherichia coli K-12), P0A6D3 (protein)
chain: T1 sequence (P0A6D3 whole entry)

How the values were obtained:
[1] = biological target: T1, 3-phosphoshikimate 1-carboxyvinyltransferase; experiment: Inhibition of Escherichia coli EPSP(5-enolpyruvyl-shikimate-3-phosphate) Synthase
[2] = biological target: T2, 3-phosphoshikimate 1-carboxyvinyltransferase (Escherichia coli K-12); experiment: (§1) Enzyme Kinetic activity was calculated against Escherichia coli EPSP(5-enolpyruvyl-shikimate-3-phosphate) Synthase
[3] = substrate: C=C(O[C@@H]1CC(C(=O)O)=C[C@@H](O)[C@H]1O)C(=O)O; experiment: as §1

Molecule	IC50 [1] [mM]	k cat [2] [s⁻¹]	Km [3] [mM]
O=C(O)C1=CC(CP(=O)(O)O)CCC1 (stereo not drawn)	> 90		
C=C(O[C@@H]1CC(C(=O)O)=C[C@@H](O)[C@H]1O)C(=O)O	> 90	0.2	
O=C(O)C1=CC(C(C(=O)O)C(=O)O)CCC1 (stereo not drawn)	> 90		
O=C(O)CO[C@@H]1CC(C(=O)O)=C[C@@H](OP(=O)(O)O)[C@H]1O	0.1		
O=C(O)C1=CC(OC(C(=O)O)C(=O)O)CCC1 (stereo not drawn)	15		
O=C(O)C1=C/C(=C\P(=O)(O)O)CCC1	> 90		
O=C(O)C1=C/C(=C/P(=O)(O)O)CCC1	> 90		
O=C(O)CO[C@@H]1CC(C(=O)O)=C[C@@H](O)[C@H]1O	> 90		
O=C(O)C1=CC(OCP(=O)(O)O)CCC1 (stereo not drawn)	> 90		
O=C(CP(=O)(O)O)O[C@@H]1CC(C(=O)O)=C[C@@H](O)[C@H]1O	> 90		
O=C(O)C1=CC(OP(=O)(O)O)CCC1 (stereo not drawn)	7.5		
B1			24

Source: ChEMBL document CHEMBL1126518, “EPSP synthase inhibitor design II. The importance of the 3-phosphate group for ligand binding at the shikimate-3-phosphate site & the identification of 3-malonate ethers as novel 3-phosphate mimics” (Bioorg Med Chem Lett, 1993)
